Assay results published in US9980927B2, “Use of tapentadol for inhibiting and/or treating depression and anxiety” (Gruenenthal GmbH, priority 2011, dated 2018).

System: patients with inadequately managed, severe chronic low back pain with or without a neuropathic pain component
Experiment: Short Form 36 Health Survey (SF-36) scores, same trial
Type: in vivo, human patients
Conditions: Baseline to Week 12, all P<0.05
Text: This was a multicenter, multinational, open-label, effectiveness phase IIIb trial to evaluate effectiveness and safety of tapentadol prolonged release treatment in patients with inadequately managed, severe chronic low back pain with or without a neuropathic pain component. Patients taking WHO Step II analgesics discontinued those analgesics before starting study medication; patients taking Step I analgesics and/or centrally acting co-analgesics continued on the same dose. […] All patients received tapentadol prolonged release (50-250 mg bid) for up to 12 weeks (5-week titration period and a 7-week maintenance period). Tapentadol immediate release (IR) 50 mg (twice a day, hours apart) was permitted (combined total daily dose of tapentadol prolonged release and tapentadol IR, 500 mg/day). The primary efficacy endpoint was the change from Baseline to Week 6 (when tapentadol prolonged release doses were stable) in average pain intensity on the 11-point NRS-3 using the last observation carried forward (LOCF) for imputing missing scores. […]
All subjects completed Short Form-36 (SF-36) and EuroQol-5 Dimension (EQ-5D) questionnaires and the Hospital Anxiety and Depression Scale (HADS). […] Adverse events were recorded throughout the trial.

CC[C@@H](c1cccc(O)c1)[C@@H](C)CN(C)C [tapentadol, (−)-(1R,2R)-3-(3-dimethylamino-1-ethyl-2-methyl-propyl)-phenol]
SF-36 physical functioning, bodily pain, general health, role-emotional and physical component summary scores (patients painDETECT negative or unclear/positive): improved
SF-36 role-physical, vitality, social functioning, mental health, reported health transition and mental component summary scores (patients painDETECT unclear/positive): also improved
